Results from ChEMBL document CHEMBL1124229, “Spiro hydantoin aldose reductase inhibitors” (J Med Chem, 1988).

Key:
[1] = target: T1, Aldo-keto reductase family 1 member B1 (Bos taurus, UniProt P16116); experiment: In vitro inhibition of partially purified calf lens aldose reductase
[2] = species on record: Rattus norvegicus; experiment: Ability to cause 50% reduction in sorbitol levels of sciatic nerve of streptozotocinized rats was determined; format: functional
[3] = target: T1, Aldo-keto reductase family 1 member B1; experiment: In vitro inhibition of partially purified calf lens aldose reductase; value ranges from 10E-5 to 10E-6
[4] = target: T1, Aldo-keto reductase family 1 member B1; experiment: Inhibition of partially purified calf lens aldose reductase; value ranges from 10E-4 to 10e-5 M
[5] = target: T1, Aldo-keto reductase family 1 member B1; experiment: In vitro inhibitory activity towards partially purified calf lens aldose reductase; value ranges from 10E-6 - 10E-7
[6] = pKa in DMF/H2O was measured; format: physicochemical
[7] = species on record: Rattus norvegicus; experiment: Dose causing 50% reduction in sorbitol accumulation in sciatic nerves of streptozotocinized rats, (tid)
[8] = species on record: Rattus norvegicus; experiment: 50% reduction in sorbitol accumulation in isolated sciatic nerves incubated in the presence of high glucose concentration; format: functional; settings: Sciatic nerve
[9] = Rattus norvegicus, Sciatic nerve, read-out: ED50

IC50 [1] [µM] | SMILES | ED50 [2, 9] [mg/kg] | also measured
< 0.1 | O=C1NC(=O)[C@@]2(CCSc3ccc(F)cc32)N1 | 0.75 | 
> 100 | O=C1NC(=S)NC12CCCc1ccccc12 (stereo not given) |  | 
> 100 | O=C1NC(=O)C2(Cc3ccccc3C2)N1 | > 25 | 
100 | O=C1NC(=O)C2(CCOc3ccc(CN4CCCCC4)cc32)N1 (stereo not given) |  | 
1 | O=C1NC(=O)C2(CCOc3c(Cl)cccc32)N1 (stereo not given) | > 1.5 | 
1 | O=C1NC(=O)C2(CCOc3cc(C(F)(F)F)ccc32)N1 (stereo not given) | 5 | 
> 100 | O=C1NC(=O)C2(CCCc3[nH]ccc32)N1 (stereo not given) | > 25 | 
10 | COc1ccc2c(c1)C1(CC2)NC(=O)NC1=O (stereo not given) | 10 | 
10 | O=C1NC(=O)C2(CCOc3ccc4ccccc4c32)N1 (stereo not given) | > 1.5 | 
> 100 | COc1ccc(Cl)c2c1C1(CCO2)NC(=O)NC1=O (stereo not given) |  | 
< 0.1 | O=C1NC(=O)C2(CCSc3cc(Cl)c(Cl)cc32)N1 (stereo not given) | 2.5 | 
10 | COc1cccc2c1CCCC21NC(=O)NC1=O (stereo not given) | > 25 | 
1 | Cc1cc(C)c2c(c1)C1(CCO2)NC(=O)NC1=O (stereo not given) | > 1.5 | 
10 | O=C1NC(=O)C2(CCCc3ncccc32)N1 (stereo not given) | 10 | 
0.1 | O=C1NC(=O)C2(CCS(=O)(=O)c3c(Cl)cc(Cl)cc32)N1 (stereo not given) | > 1.5 | 
100 | CN(C)S(=O)(=O)c1ccc2c(c1)C1(CCO2)NC(=O)NC1=O (stereo not given) | > 5 | 

More lines, now with the values behind:

SMILES | IC50 [1] [µM] | ED50 [2, 9] [mg/kg] | also measured
O=C(O)C1CCSc2ccc(Cl)cc21 (stereo not given) | < 100 |  | 
c1ccc2c(c1)CCC21CCNC1 (stereo not given) | > 100 | > 25 | 
Cc1cc(Cl)cc2c1OCCC2C(=O)O (stereo not given) |  |  | IC50 [3]: 10 µM
O=C1CCC2(CCCc3ccccc32)C(=O)N1 (stereo not given) | > 100 | > 25 | 
COc1ccc2c(c1)C1(CCO2)NC(=O)NC1=O (stereo not given) |  | > 2.5 | IC50 [3]: 10 µM
O=C1NC(=O)[C@]2(CCOc3ccc(F)cc32)N1 |  | 25 | 
O=CNC(=O)NC1CCc2ccccc21 (stereo not given) | > 100 | > 10 | 
O=C1NC(=O)C2(CCCCC2)N1 | 100 | > 25 | 
O=C1NC(=O)C2(CCc3ccc(F)cc32)N1 (stereo not given) |  | 5 | IC50 [4]: 100 µM
CC(C)(C)c1ccc2c(c1)C1(CCS2)NC(=O)NC1=O (stereo not given) |  |  | IC50 [4]: 100 µM
CS(=O)(=O)c1ccc2c(c1)C1(CCO2)NC(=O)NC1=O (stereo not given) |  |  | IC50 [4]: 100 µM
O=C(O)CC1(CC(=O)O)CCCC1 |  | ~500 | IC50 [5]: 1 µM; IC50 [3]: 10 µM
O=C1NC(=O)C2(CC[S+]([O-])c3ccc(F)cc32)N1 (stereo not given) |  | > 1.5 | IC50 [5]: 1 µM
COc1cc2c(cc1OC)C1(CC2)NC(=O)NC1=O (stereo not given) |  | 10 | IC50 [3]: 10 µM
COc1cc2c(cc1OC)C1(CCC2)NC(=O)NC1=O (stereo not given) |  | > 5 | IC50 [4]: 100 µM
O=C(O)C1CCOc2c(Cl)cc(Cl)cc21 (stereo not given) | 10 |  | 
S=C1NC(=S)C2(CCCc3ccccc32)N1 (stereo not given) | > 100 | > 25 | 
Cc1ccc2c(c1)C1(CCO2)NC(=O)NC1=O (stereo not given) |  | 5 | IC50 [3]: 10 µM
O=C1NC(=O)C2(CCS(=O)(=O)c3ccc(F)cc32)N1 (stereo not given) |  | 2.5 | IC50 [5]: 1 µM

SMILES | IC50 [1] [µM] | ED50 [2, 9] [mg/kg] | also measured
CN1C(=O)N(C)C2(CCCc3ccccc32)C1=O (stereo not given) | > 100 | 25 | 
O=C(O)C1Cc2ccccc2C1 | 100 |  | 
CN1CCC2(NC(=O)NC2=O)c2ccccc21 (stereo not given) |  | > 25 | IC50 [4]: 100 µM
O=C(O)C1CCCc2ccccc21 (stereo not given) | > 100 |  | 
O=C(O)C1CCSc2ccccc21 (stereo not given) | 100 |  | 
O=C1NC(=O)C2(CCS(=O)(=O)c3ccccc32)N1 (stereo not given) |  | 20 | IC50 [3]: 10 µM
O=C1CC2(CCOc3ccc(Cl)cc32)C(=O)N1 (stereo not given) | < 100 | > 5 | 
NC(=O)C1(NC=O)CCc2ccccc21 (stereo not given) | 100 | > 10 | 
O=C(O)C1CCc2ccccc21 (stereo not given) | > 100 |  | 
O=C(O)C1CCOc2c1cc(Cl)c1ccccc21 (stereo not given) | 1 | > 25 | 
O=C(O)C1CCOc2ccccc21 (stereo not given) | 100 |  | 
O=C1NC(=O)C2(CCOc3ccc(Oc4ccccc4)cc32)N1 (stereo not given) |  | 25 | 
NC(=O)c1ccc2c(c1)C1(CCO2)NC(=O)NC1=O (stereo not given) |  | > 100 | IC50 [4]: 100 µM
O=C1CC2(CCCc3ccccc32)C(=O)N1 (stereo not given) | > 100 | 5 | 
O=C1CC2(CCCc3ccccc32)CN1 (stereo not given) | > 100 | > 25 | 
O=C1NC(=O)C2(CCOc3ccc(Br)cc32)N1 (stereo not given) |  | < 1.5 | IC50 [5]: 1 µM
O=C1NC(=O)[C@@]2(CCOc3ccc(F)cc32)N1 (stereo in doubt; 32) [SORBINIL] |  |  | ED50 [2]: 0.75 mg/kg
O=C1NC(=O)[C@@]2(CCOc3ccc(F)cc32)N1 (stereo in doubt; 115) [SORBINIL] |  |  | ED50 [2]: 0.25 mg/kg; pKa [6]: 8.7; ED50 [7]: 1e-05 M/kg; IC50 [8]: 1 µM
O=C1NC(=O)C(c2ccccc2)(c2ccccc2)N1 [PHENYTOIN] | > 100 | > 250 | 
